What was measured:
Conditions in all cases: Compound concentration 10 µM
[1] = target: T1, Alpha-2B adrenergic receptor (Homo sapiens) (UniProt P18089)
T1 sequence (whole entry): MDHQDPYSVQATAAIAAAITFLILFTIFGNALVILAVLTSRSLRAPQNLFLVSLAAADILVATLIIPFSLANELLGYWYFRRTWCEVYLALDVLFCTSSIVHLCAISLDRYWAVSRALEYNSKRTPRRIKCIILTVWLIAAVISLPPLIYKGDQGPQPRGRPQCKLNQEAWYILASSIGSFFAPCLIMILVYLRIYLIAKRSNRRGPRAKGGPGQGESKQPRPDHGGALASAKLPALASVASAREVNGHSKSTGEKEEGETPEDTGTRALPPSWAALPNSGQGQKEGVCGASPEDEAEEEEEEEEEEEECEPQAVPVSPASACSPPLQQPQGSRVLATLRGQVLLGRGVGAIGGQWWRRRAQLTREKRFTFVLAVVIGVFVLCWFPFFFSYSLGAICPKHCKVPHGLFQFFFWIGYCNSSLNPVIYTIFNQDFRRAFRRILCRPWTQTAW
Description: PDSP Primary Binding target: ADRA2B - Compounds are tested at 10 uM concentration, plate are incubated at room temperature in the dark for 90 minutes. Reaction are stopped by vacuum filtration onto 0.3% polyethyleneimine soaked filter mats using Filtermate harvester. Scintilation cocktail is then melted onto microwave-dried filters on a hot plate and the radio activity is counted in Microbia counter.

[2] = target: T2, Muscarinic acetylcholine receptor M2 (Homo sapiens) (UniProt P08172)
T2 sequence (whole entry): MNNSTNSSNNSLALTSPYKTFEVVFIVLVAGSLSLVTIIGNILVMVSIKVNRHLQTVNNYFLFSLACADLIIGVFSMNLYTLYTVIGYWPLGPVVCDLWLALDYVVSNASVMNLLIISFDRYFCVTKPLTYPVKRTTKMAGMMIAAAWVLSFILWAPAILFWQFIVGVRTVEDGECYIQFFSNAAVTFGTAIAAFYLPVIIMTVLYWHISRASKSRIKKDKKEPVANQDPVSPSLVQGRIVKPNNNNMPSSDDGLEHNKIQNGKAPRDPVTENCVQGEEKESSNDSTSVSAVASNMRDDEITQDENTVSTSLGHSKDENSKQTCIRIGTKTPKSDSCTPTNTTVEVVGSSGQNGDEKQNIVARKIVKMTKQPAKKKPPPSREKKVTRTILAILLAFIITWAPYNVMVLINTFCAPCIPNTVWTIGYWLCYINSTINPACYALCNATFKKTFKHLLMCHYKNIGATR
Description: PDSP Primary Binding target: CHRM2 - Compounds are tested at 10 uM concentration, plate are incubated at room temperature in the dark for 90 minutes. Reaction are stopped by vacuum filtration onto 0.3% polyethyleneimine soaked filter mats using Filtermate harvester. Scintilation cocktail is then melted onto microwave-dried filters on a hot plate and the radio activity is counted in Microbia counter.

[3] = target: D(3) dopamine receptor (Homo sapiens) (UniProt P35462)
Description: PDSP Primary Binding target: DRD3 - Compounds are tested at 10 uM concentration, plate are incubated at room temperature in the dark for 90 minutes. Reaction are stopped by vacuum filtration onto 0.3% polyethyleneimine soaked filter mats using Filtermate harvester. Scintilation cocktail is then melted onto microwave-dried filters on a hot plate and the radio activity is counted in Microbia counter.

[4] = target: T3, 5-hydroxytryptamine receptor 1A (Homo sapiens) (UniProt P08908)
T3 sequence (whole entry): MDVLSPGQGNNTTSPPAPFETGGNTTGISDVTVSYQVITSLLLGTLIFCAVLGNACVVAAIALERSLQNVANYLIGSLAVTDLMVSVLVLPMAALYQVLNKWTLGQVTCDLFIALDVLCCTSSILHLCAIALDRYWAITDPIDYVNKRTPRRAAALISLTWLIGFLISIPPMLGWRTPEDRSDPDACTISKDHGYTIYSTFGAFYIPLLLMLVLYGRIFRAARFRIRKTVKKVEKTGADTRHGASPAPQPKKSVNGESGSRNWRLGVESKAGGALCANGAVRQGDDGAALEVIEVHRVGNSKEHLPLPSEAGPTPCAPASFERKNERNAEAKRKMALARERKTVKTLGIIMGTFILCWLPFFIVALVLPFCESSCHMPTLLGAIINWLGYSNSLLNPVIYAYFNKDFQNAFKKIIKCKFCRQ
Description: PDSP Primary Binding target: HTR1A - Compounds are tested at 10 uM concentration, plate are incubated at room temperature in the dark for 90 minutes. Reaction are stopped by vacuum filtration onto 0.3% polyethyleneimine soaked filter mats using Filtermate harvester. Scintilation cocktail is then melted onto microwave-dried filters on a hot plate and the radio activity is counted in Microbia counter.

[5] = target: 5-hydroxytryptamine receptor 2B (Homo sapiens) (UniProt P41595)
Description: PDSP Primary Binding target: HTR2B - Compounds are tested at 10 uM concentration, plate are incubated at room temperature in the dark for 90 minutes. Reaction are stopped by vacuum filtration onto 0.3% polyethyleneimine soaked filter mats using Filtermate harvester. Scintilation cocktail is then melted onto microwave-dried filters on a hot plate and the radio activity is counted in Microbia counter.

[6] = target: T4, 5-hydroxytryptamine receptor 2C (Homo sapiens) (UniProt P28335)
T4 sequence (whole entry): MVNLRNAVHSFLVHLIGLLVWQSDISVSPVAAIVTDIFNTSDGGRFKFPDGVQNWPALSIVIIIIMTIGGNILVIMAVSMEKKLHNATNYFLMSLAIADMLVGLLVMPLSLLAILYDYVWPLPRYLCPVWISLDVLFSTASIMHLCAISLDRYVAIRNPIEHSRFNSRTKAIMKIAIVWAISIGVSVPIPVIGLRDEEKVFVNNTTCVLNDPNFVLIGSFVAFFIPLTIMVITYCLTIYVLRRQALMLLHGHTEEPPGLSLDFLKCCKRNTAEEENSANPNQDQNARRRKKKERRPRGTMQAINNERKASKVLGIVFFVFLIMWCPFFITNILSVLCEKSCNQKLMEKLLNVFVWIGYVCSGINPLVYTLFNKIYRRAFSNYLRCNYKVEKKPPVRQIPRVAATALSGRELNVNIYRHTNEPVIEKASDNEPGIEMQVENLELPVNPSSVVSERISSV
Description: PDSP Primary Binding target: HTR2C - Compounds are tested at 10 uM concentration, plate are incubated at room temperature in the dark for 90 minutes. Reaction are stopped by vacuum filtration onto 0.3% polyethyleneimine soaked filter mats using Filtermate harvester. Scintilation cocktail is then melted onto microwave-dried filters on a hot plate and the radio activity is counted in Microbia counter.

[7] = target: T5, 5-hydroxytryptamine receptor 3A (Homo sapiens) (UniProt P46098)
T5 sequence (whole entry): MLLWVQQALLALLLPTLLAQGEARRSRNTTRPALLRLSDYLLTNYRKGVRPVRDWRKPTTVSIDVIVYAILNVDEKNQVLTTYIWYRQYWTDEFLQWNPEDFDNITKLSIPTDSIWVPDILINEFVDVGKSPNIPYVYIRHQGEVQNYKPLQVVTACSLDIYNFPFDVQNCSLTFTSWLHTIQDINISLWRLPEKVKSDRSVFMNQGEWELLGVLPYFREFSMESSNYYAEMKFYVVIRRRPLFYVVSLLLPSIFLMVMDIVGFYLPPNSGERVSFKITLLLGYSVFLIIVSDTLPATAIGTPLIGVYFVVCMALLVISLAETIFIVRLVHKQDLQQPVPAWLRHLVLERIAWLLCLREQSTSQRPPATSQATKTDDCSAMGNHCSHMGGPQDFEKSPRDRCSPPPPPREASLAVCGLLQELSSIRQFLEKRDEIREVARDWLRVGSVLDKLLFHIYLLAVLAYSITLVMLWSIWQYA
Description: PDSP Primary Binding target: HTR3A - Compounds are tested at 10 uM concentration, plate are incubated at room temperature in the dark for 90 minutes. Reaction are stopped by vacuum filtration onto 0.3% polyethyleneimine soaked filter mats using Filtermate harvester. Scintilation cocktail is then melted onto microwave-dried filters on a hot plate and the radio activity is counted in Microbia counter.

[8] = target: 5-hydroxytryptamine receptor 5A (Homo sapiens) (UniProt P47898)
Description: PDSP Primary Binding target: HTR5A - Compounds are tested at 10 uM concentration, plate are incubated at room temperature in the dark for 90 minutes. Reaction are stopped by vacuum filtration onto 0.3% polyethyleneimine soaked filter mats using Filtermate harvester. Scintilation cocktail is then melted onto microwave-dried filters on a hot plate and the radio activity is counted in Microbia counter.

[9] = target: Kappa-type opioid receptor (Homo sapiens) (UniProt P41145)
Description: PDSP Primary Binding target: OPRK1 - Compounds are tested at 10 uM concentration, plate are incubated at room temperature in the dark for 90 minutes. Reaction are stopped by vacuum filtration onto 0.3% polyethyleneimine soaked filter mats using Filtermate harvester. Scintilation cocktail is then melted onto microwave-dried filters on a hot plate and the radio activity is counted in Microbia counter.

[10] = target: Sigma non-opioid intracellular receptor 1 (Homo sapiens) (UniProt Q99720)
Sigma non-opioid intracellular receptor 1 (Homo sapiens), sequence (Q99720 whole entry): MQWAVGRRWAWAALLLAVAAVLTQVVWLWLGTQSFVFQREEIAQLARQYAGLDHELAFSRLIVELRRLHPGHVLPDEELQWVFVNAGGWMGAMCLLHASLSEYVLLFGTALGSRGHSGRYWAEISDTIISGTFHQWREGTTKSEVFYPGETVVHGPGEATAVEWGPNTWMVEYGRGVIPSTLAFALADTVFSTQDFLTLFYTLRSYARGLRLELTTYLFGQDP
Description: PDSP Primary Binding target: SIGMAR1 - Compounds are tested at 10 uM concentration, plate are incubated at room temperature in the dark for 90 minutes. Reaction are stopped by vacuum filtration onto 0.3% polyethyleneimine soaked filter mats using Filtermate harvester. Scintilation cocktail is then melted onto microwave-dried filters on a hot plate and the radio activity is counted in Microbia counter.

5-hydroxytryptamine receptor 5A (Homo sapiens), sequence (P47898 whole entry): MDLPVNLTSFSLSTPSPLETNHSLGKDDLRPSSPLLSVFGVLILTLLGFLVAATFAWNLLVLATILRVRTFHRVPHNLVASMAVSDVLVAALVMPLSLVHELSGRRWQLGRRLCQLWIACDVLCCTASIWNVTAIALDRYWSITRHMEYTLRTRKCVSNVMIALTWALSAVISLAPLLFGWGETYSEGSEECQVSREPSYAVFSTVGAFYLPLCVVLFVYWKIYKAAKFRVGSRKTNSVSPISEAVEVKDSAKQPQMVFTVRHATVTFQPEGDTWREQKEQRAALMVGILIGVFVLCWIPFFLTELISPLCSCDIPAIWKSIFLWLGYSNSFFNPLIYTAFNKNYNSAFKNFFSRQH
D(3) dopamine receptor (Homo sapiens), sequence (P35462 whole entry): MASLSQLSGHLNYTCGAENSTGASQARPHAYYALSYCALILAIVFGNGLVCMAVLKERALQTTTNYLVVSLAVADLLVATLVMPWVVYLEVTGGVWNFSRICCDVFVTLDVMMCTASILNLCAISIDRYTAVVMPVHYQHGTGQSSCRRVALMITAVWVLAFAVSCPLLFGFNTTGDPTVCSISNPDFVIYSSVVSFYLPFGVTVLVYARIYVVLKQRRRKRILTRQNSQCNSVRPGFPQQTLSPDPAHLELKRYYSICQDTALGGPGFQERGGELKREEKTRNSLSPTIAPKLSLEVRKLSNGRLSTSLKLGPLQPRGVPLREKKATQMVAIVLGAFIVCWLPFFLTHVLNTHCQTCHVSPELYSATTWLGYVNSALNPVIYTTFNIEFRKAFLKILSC
Kappa-type opioid receptor (Homo sapiens), sequence (P41145 whole entry): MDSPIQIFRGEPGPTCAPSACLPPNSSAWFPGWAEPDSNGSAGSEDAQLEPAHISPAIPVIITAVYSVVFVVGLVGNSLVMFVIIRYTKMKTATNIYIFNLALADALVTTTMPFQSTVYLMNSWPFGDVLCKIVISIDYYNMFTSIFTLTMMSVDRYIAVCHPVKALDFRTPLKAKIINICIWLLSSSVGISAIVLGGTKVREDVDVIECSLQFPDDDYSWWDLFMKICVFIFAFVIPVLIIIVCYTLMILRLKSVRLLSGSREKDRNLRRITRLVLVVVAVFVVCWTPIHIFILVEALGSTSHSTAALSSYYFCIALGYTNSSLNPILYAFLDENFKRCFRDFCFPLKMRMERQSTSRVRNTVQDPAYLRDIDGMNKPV
5-hydroxytryptamine receptor 2B (Homo sapiens), sequence (P41595 whole entry): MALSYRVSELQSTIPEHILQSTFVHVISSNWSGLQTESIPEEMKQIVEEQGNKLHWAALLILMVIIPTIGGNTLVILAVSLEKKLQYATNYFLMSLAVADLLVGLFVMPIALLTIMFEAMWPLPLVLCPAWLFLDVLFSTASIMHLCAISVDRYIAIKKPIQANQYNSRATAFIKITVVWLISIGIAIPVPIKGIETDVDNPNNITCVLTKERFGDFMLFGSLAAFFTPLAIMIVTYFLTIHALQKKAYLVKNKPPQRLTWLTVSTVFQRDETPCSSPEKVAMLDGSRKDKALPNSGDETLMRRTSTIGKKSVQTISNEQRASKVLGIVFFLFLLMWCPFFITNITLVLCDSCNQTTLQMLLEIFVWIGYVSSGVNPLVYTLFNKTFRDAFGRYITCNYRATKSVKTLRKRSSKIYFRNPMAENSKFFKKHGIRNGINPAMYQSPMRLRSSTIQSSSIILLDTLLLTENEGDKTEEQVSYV

`COC(=O)C1=C(C)NC(C)=C(C(=O)OCCCN2CCC(c3ccccc3)(c3ccccc3)CC2)[C@H]1c1cccc([N+](=O)[O-])c1` was tested, and the inhibition [1] was 90%, the inhibition [2] was 40.4% and the inhibition [3] was 81.8%. It also gave an inhibition [4] of 83.7%, an inhibition [5] of 83.2% and an inhibition [6] of 58.1%. For the same molecule, the inhibition [7] was 43.2%, the inhibition [8] was 68.7% and the inhibition [9] was 95.6%. The inhibition [10] was 53.5%.

`Cc1nc2sccn2c(=O)c1CCN1CCC(=C(c2ccc(F)cc2)c2ccc(F)cc2)CC1` was tested, and the inhibition [1] was 84%, the inhibition [2] was 34.1% and the inhibition [3] was 94.6%. For the same molecule, the inhibition [4] was 30.5%, the inhibition [5] was 89.4% and the inhibition [6] was 97.8%. The inhibition [7] was 4.51%, the inhibition [8] was 94% and the inhibition [9] was 65.8%. It also gave an inhibition [10] of 87.3%.

`COc1ccc(NS(=O)(=O)c2sc3ccc(Cl)cc3c2C)cc1N1CCNCC1` was tested, and the inhibition [1] was 35.1%, the inhibition [2] was 17% and the inhibition [3] was 91%. For the same molecule, the inhibition [4] was 67.4%, the inhibition [5] was 71.2% and the inhibition [6] was 51.7%. The inhibition [7] was 73.3%, the inhibition [8] was 58.1% and the inhibition [9] was 75.5%. The inhibition [10] was 83.6%.

`COc1ccc(OC(F)(F)F)cc1CN[C@H]1CCCN[C@H]1c1ccccc1` showed an inhibition [1] of 0.54%, an inhibition [2] of 12.9% and an inhibition [3] of 36.3%. For the same molecule, the inhibition [4] was 56.2%, the inhibition [5] was 87.7% and the inhibition [6] was 58.5%. For the same molecule, the inhibition [7] was 13.1%, the inhibition [8] was 24.8% and the inhibition [9] was 21.1%. For the same molecule, the inhibition [10] was 59.9%.

`Cc1ccccc1C(=O)Nc1ccc(C(=O)N2CCCC(O)c3cc(Cl)ccc32)c(C)c1` (stereo not given) showed an inhibition [1] of 17.5%, an inhibition [2] of 2.3% and an inhibition [3] of 33%. The inhibition [4] was 7.65%, the inhibition [5] was 74.7% and the inhibition [6] was 78.3%. It also gave an inhibition [7] of -5.18%, an inhibition [8] of 11.7% and an inhibition [9] of 21%. For the same molecule, the inhibition [10] was 28.2%.

Molecule `CCCCCNC(=N)N/N=C/c1c[nH]c2ccc(OC)cc12` has an inhibition [1] of 69%, an inhibition [2] of 38.2% and an inhibition [3] of 70%. The inhibition [4] was 101%, the inhibition [5] was 100% and the inhibition [6] was 92.8%. The inhibition [7] was 70.2%, the inhibition [8] was 97.6% and the inhibition [9] was 35.1%. It also gave an inhibition [10] of 96.6%.

Molecule `Clc1cccc(COc2cncc(N3CCNCC3)n2)c1` has an inhibition [1] of 36.1%, an inhibition [2] of 33.3% and an inhibition [3] of 79.6%. The inhibition [4] was 86%, the inhibition [5] was 99.5% and the inhibition [6] was 94.9%. For the same molecule, the inhibition [7] was 97.8%, the inhibition [8] was 13.2% and the inhibition [9] was 28.3%. It also gave an inhibition [10] of 96%.
